Laboratory results as given in patent US5021236A, “Method of enhancing NMR imaging using chelated paramagnetic ions bound to biomolecules” (Schering Aktiengesellschaft, priority 1981, dated 1991).

How the values were obtained:
aqueous solubility = assay type: physicochemical; conditions: in water
[1] = NMR detection of a defective blood-brain barrier in the region of a cranial abscess; assay type: in vivo; conditions: NMR diagnosis; complex in the form of salts with good aqueous solubility; preferably 0.1-0.5 mmole/kg
From the text: In contrast to conventional X-ray diagnosis with radiopaque X-ray contrast media, in NMR diagnosis with paramagnetic contrast medium there is no linear dependence of the signal enhancement on the concentration used. […] For this reason, it was surprising that some pathological processes can be seen only after application of a strongly paramagnetic contrast medium, according to the invention, higher than the doses indicated in EP No. 71564 (which can be from 0.001 mmole/kg to 5 mmole/kg). […] For a dose greater than 0.1 mmole/kg, solutions of high concentrations up to 1 mole/l, preferably 0.25 to 0.75 mole/l, are necessary, since only in this way is the volume load reduced and handling of the injection solution assured.

SMILES	aqueous solubility (aqueous solubility)	dose at which a defective blood-brain barrier can be detected [1] [mmol/kg]
O=C([O-])CCCCCCCCCCNC(=O)CN(CCN(CCN(CC(=O)[O-])CC(=O)NCCCCCCCCCCC(=O)[O-])CC(=O)[O-])CC(=O)[O-].[Gd+3].[Na+].[Na+] [Example 2, disodium salt of gadolinium(III) complex of 13,23-dioxo-15,18,21-tris(carboxymethyl)-12,15,18,21,24-pentaazapentatriacontanedioic acid]	good aqueous solubility	–
O=C([O-])CN(CCN(CC(=O)[O-])CC(=O)NCCCCCCCCCCC(=O)O)CCN(CC(=O)[O-])CC(=O)NCCCCCCCCCCC(=O)O.[Gd+3] [Gadolinium(III) complex of 13,23-dioxo-15,18,21-tris(carboxymethyl)-12,15,18,21,24-pentaazapentatriacontanedioic acid]	insoluble in water	–
O=C([O-])CN(CCN(CC(=O)[O-])CC(=O)O)CCN(CC(=O)[O-])CC(=O)O.[Gd+3] [gadolinium diethylenetriaminepentaacetic acid]	–	0.05 to 2.5
O=C(O)CN(CC(=O)O)C1CCCCC1N(CC(=O)O)CC(=O)O.[Mn] (stereo not shown) [manganese-1,2-cyclohexenediaminetetraacetic acid]	–	0.05 to 2.5
